Experimental data taken from publication PMC10945555, “Improving Activity of New Arylurea Agents against Multidrug-Resistant and Biofilm-Producing Staphylococcus epidermidis” (ACS Medicinal Chemistry Letters, 2024).
In brackets after ≈: the same amount, converted by molar mass. Read-outs that look alike come from different tables or passages of the source.

Test system: clinical MDR Staphylococcus epidermidis isolates
Assay: MIC, broth microdilution, 81 clinical MDR strains
Format: cell-based
Method: 2 Biological assay protocols
Microbiological tests were carried out under aseptic conditions in a laminar chamber of the 2nd […]
(BioTectum 1.2, Alchem Poland). The assessment of antimicrobial activity was carried out for final compounds in the form of free bases, soluble in DMSO (Merck, Germany), at the initial […]
concentration of 1 mg/mL. […]
were provided by Cayman Chemical, USA. […]
The antibacterial activity of selected compounds was also tested on a panel of 81 unrelated, multidrug -resistant clinical strains of Staphylococcus epidermidis from the own collection of the Department of Pharmaceutical Microbiology of the Jagiellonian University Medical College.
2.2 Effect of evaluated compounds on planktonic cells
The susceptibility of three reference bacterial strains (Staphylococcus epidermidis ATCC […]
Table S1) and 81 clinical MDR S. epidermidis (Table S2) to the tested compounds was assessed by determining the MIC value (Minimal Inhibitory Concentration) by microdilution in a liquid medium in 96-well flat-bottom cell culture plates (Nest Biotechnology Scientific, USA). The antibacterial properties of the compo unds were tested in the concentration range from 50 µg/mL to 0.1 µg/mL by making a series of double dilutions of the compound in liquid Mueller -Hinton II Broth Cation Adjusted (MHB II, BBL TM, USA) according to the European Committee on […]
Antimicrobial Susceptibility Testing guidelines (EUCAST).2,3 The determinations were performed twice. The MIC50 and MIC90 values were determined for each of the tested

Structure (SMILES): O=C(Nc1cccc(Cl)c1)NC1CCN(CCC(Oc2ccc(C(F)(F)F)cc2)c2cccs2)CC1 (stereo not drawn) [Compound 25]
- MIC (Staphylococcus epidermidis, clinical strain 42 (Table S2), read-out: MIC): 0.8 µg/mL (≈ 1.49 µM)
- MIC (Staphylococcus epidermidis, clinical strain 42 (Table S5), read-out: MIC): 0.8 µg/mL (≈ 1.49 µM)
- MIC (Staphylococcus epidermidis, clinical strain 43 (Table S2), read-out: MIC): 1.6 µg/mL (≈ 2.97 µM)
- MIC (Staphylococcus epidermidis, clinical strain 43 (Table S5), read-out: MIC): 1.6 µg/mL (≈ 2.97 µM)
- MIC (Staphylococcus epidermidis, clinical strain 44 (Table S2), read-out: MIC): 1.6 µg/mL (≈ 2.97 µM)
- MIC (Staphylococcus epidermidis, clinical strain 44 (Table S5), read-out: MIC): 1.6 µg/mL (≈ 2.97 µM)
- MIC (Staphylococcus epidermidis, clinical strain 45 (Table S2), read-out: MIC): 1.6 µg/mL (≈ 2.97 µM)
- MIC (Staphylococcus epidermidis, clinical strain 45 (Table S5), read-out: MIC): 1.6 µg/mL (≈ 2.97 µM)
- MIC (Staphylococcus epidermidis, clinical strain 46 (Table S2), read-out: MIC): 1.6 µg/mL (≈ 2.97 µM)
- MIC (Staphylococcus epidermidis, clinical strain 46 (Table S5), read-out: MIC): 0.8 µg/mL (≈ 1.49 µM)
- MIC (Staphylococcus epidermidis, clinical strain 47 (Table S2), read-out: MIC): 1.6 µg/mL (≈ 2.97 µM)
- MIC (Staphylococcus epidermidis, clinical strain 47 (Table S5), read-out: MIC): 1.6 µg/mL (≈ 2.97 µM)
- MIC (Staphylococcus epidermidis, clinical strain 48 (Table S2), read-out: MIC): 1.6 µg/mL (≈ 2.97 µM)
- MIC (Staphylococcus epidermidis, clinical strain 48 (Table S5), read-out: MIC): 1.6 µg/mL (≈ 2.97 µM)
- MIC (Staphylococcus epidermidis, clinical strain 49 (Table S2), read-out: MIC): 0.1 µg/mL (≈ 0.186 µM)
- MIC (Staphylococcus epidermidis, clinical strain 49 (Table S5), read-out: MIC): 0.1 µg/mL (≈ 0.186 µM)
- MIC (Staphylococcus epidermidis, clinical strain 50 (Table S2), read-out: MIC): 3.12 µg/mL (≈ 5.81 µM)
- MIC (Staphylococcus epidermidis, clinical strain 50 (Table S5), read-out: MIC): 3.12 µg/mL (≈ 5.81 µM)
- MIC (Staphylococcus epidermidis, clinical strain 51 (Table S2), read-out: MIC): 3.12 µg/mL (≈ 5.81 µM)
- MIC (Staphylococcus epidermidis, clinical strain 51 (Table S5), read-out: MIC): 3.12 µg/mL (≈ 5.81 µM)
- MIC (Staphylococcus epidermidis, clinical strain 52 (Table S2), read-out: MIC): 3.12 µg/mL (≈ 5.81 µM)
- MIC (Staphylococcus epidermidis, clinical strain 52 (Table S5), read-out: MIC): 3.12 µg/mL (≈ 5.81 µM)
- MIC (Staphylococcus epidermidis, clinical strain 53 (Table S2), read-out: MIC): 3.12 µg/mL (≈ 5.81 µM)
- MIC (Staphylococcus epidermidis, clinical strain 53 (Table S5), read-out: MIC): 3.12 µg/mL (≈ 5.81 µM)
- MIC (Staphylococcus epidermidis, clinical strain 54 (Table S2), read-out: MIC): 0.8 µg/mL (≈ 1.49 µM)
- MIC (Staphylococcus epidermidis, clinical strain 54 (Table S5), read-out: MIC): 0.8 µg/mL (≈ 1.49 µM)
- MIC (Staphylococcus epidermidis, clinical strain 55 (Table S2), read-out: MIC): 3.12 µg/mL (≈ 5.81 µM)
- MIC (Staphylococcus epidermidis, clinical strain 55 (Table S5), read-out: MIC): 3.12 µg/mL (≈ 5.81 µM)
- MIC (Staphylococcus epidermidis, clinical strain 56 (Table S2), read-out: MIC): 1.6 µg/mL (≈ 2.97 µM)
- MIC (Staphylococcus epidermidis, clinical strain 56 (Table S5), read-out: MIC): 1.6 µg/mL (≈ 2.97 µM)
- MIC (Staphylococcus epidermidis, clinical strain 57 (Table S2), read-out: MIC): 3.12 µg/mL (≈ 5.81 µM)
- MIC (Staphylococcus epidermidis, clinical strain 57 (Table S5), read-out: MIC): 3.12 µg/mL (≈ 5.81 µM)
- MIC (Staphylococcus epidermidis, clinical strain 58 (Table S2), read-out: MIC): 0.8 µg/mL (≈ 1.49 µM)
- MIC (Staphylococcus epidermidis, clinical strain 58 (Table S5), read-out: MIC): 0.8 µg/mL (≈ 1.49 µM)
- MIC (Staphylococcus epidermidis, clinical strain 59 (Table S2), read-out: MIC): 3.12 µg/mL (≈ 5.81 µM)
- MIC (Staphylococcus epidermidis, clinical strain 59 (Table S5), read-out: MIC): 3.12 µg/mL (≈ 5.81 µM)
- MIC (Staphylococcus epidermidis, clinical strain 60 (Table S2), read-out: MIC): 3.12 µg/mL (≈ 5.81 µM)
- MIC (Staphylococcus epidermidis, clinical strain 60 (Table S5), read-out: MIC): 3.12 µg/mL (≈ 5.81 µM)
- MIC (Staphylococcus epidermidis, clinical strain 61 (Table S2), read-out: MIC): 1.6 µg/mL (≈ 2.97 µM)
- MIC (Staphylococcus epidermidis, clinical strain 61 (Table S5), read-out: MIC): 1.6 µg/mL (≈ 2.97 µM)
- MIC (Staphylococcus epidermidis, clinical strain 62 (Table S2), read-out: MIC): 1.6 µg/mL (≈ 2.97 µM)
- MIC (Staphylococcus epidermidis, clinical strain 62 (Table S5), read-out: MIC): 1.6 µg/mL (≈ 2.97 µM)
- MIC (Staphylococcus epidermidis, clinical strain 63 (Table S2), read-out: MIC): 1.6 µg/mL (≈ 2.97 µM)
- MIC (Staphylococcus epidermidis, clinical strain 63 (Table S5), read-out: MIC): 1.6 µg/mL (≈ 2.97 µM)
- MIC (Staphylococcus epidermidis, clinical strain 64 (Table S2), read-out: MIC): 3.12 µg/mL (≈ 5.81 µM)
- MIC (Staphylococcus epidermidis, clinical strain 64 (Table S5), read-out: MIC): 3.12 µg/mL (≈ 5.81 µM)
- MIC (Staphylococcus epidermidis, clinical strain 65 (Table S2), read-out: MIC): 3.12 µg/mL (≈ 5.81 µM)
- MIC (Staphylococcus epidermidis, clinical strain 65 (Table S5), read-out: MIC): 3.12 µg/mL (≈ 5.81 µM)
- MIC (Staphylococcus epidermidis, clinical strain 66 (Table S2), read-out: MIC): 1.6 µg/mL (≈ 2.97 µM)
- MIC (Staphylococcus epidermidis, clinical strain 66 (Table S5), read-out: MIC): 1.6 µg/mL (≈ 2.97 µM)
- MIC (Staphylococcus epidermidis, clinical strain 67 (Table S2), read-out: MIC): 3.12 µg/mL (≈ 5.81 µM)
- MIC (Staphylococcus epidermidis, clinical strain 67 (Table S5), read-out: MIC): 3.12 µg/mL (≈ 5.81 µM)
- MIC (Staphylococcus epidermidis, clinical strain 68 (Table S2), read-out: MIC): 3.12 µg/mL (≈ 5.81 µM)
- MIC (Staphylococcus epidermidis, clinical strain 68 (Table S5), read-out: MIC): 3.12 µg/mL (≈ 5.81 µM)
- MIC (Staphylococcus epidermidis, clinical strain 69 (Table S2), read-out: MIC): 1.6 µg/mL (≈ 2.97 µM)
- MIC (Staphylococcus epidermidis, clinical strain 69 (Table S5), read-out: MIC): 1.6 µg/mL (≈ 2.97 µM)
- MIC (Staphylococcus epidermidis, clinical strain 70 (Table S2), read-out: MIC): 3.12 µg/mL (≈ 5.81 µM)
- MIC (Staphylococcus epidermidis, clinical strain 70 (Table S5), read-out: MIC): 3.12 µg/mL (≈ 5.81 µM)
- MIC (Staphylococcus epidermidis, clinical strain 71 (Table S2), read-out: MIC): 1.6 µg/mL (≈ 2.97 µM)
- MIC (Staphylococcus epidermidis, clinical strain 71 (Table S5), read-out: MIC): 1.6 µg/mL (≈ 2.97 µM)
- MIC (Staphylococcus epidermidis, clinical strain 72 (Table S2), read-out: MIC): 3.12 µg/mL (≈ 5.81 µM)
- MIC (Staphylococcus epidermidis, clinical strain 72 (Table S5), read-out: MIC): 3.12 µg/mL (≈ 5.81 µM)
- MIC (Staphylococcus epidermidis, clinical strain 73 (Table S2), read-out: MIC): 0.4 µg/mL (≈ 0.743 µM)
- MIC (Staphylococcus epidermidis, clinical strain 73 (Table S5), read-out: MIC): 0.4 µg/mL (≈ 0.743 µM)
- MIC (Staphylococcus epidermidis, clinical strain 74 (Table S2), read-out: MIC): 3.12 µg/mL (≈ 5.81 µM)
- MIC (Staphylococcus epidermidis, clinical strain 74 (Table S5), read-out: MIC): 3.12 µg/mL (≈ 5.81 µM)
- MIC (Staphylococcus epidermidis, clinical strain 75 (Table S2), read-out: MIC): 3.12 µg/mL (≈ 5.81 µM)
- MIC (Staphylococcus epidermidis, clinical strain 75 (Table S5), read-out: MIC): 3.12 µg/mL (≈ 5.81 µM)
- MIC (Staphylococcus epidermidis, clinical strain 76 (Table S2), read-out: MIC): 1.6 µg/mL (≈ 2.97 µM)
- MIC (Staphylococcus epidermidis, clinical strain 76 (Table S5), read-out: MIC): 1.6 µg/mL (≈ 2.97 µM)
- MIC (Staphylococcus epidermidis, clinical strain 77 (Table S2), read-out: MIC): 3.12 µg/mL (≈ 5.81 µM)
- MIC (Staphylococcus epidermidis, clinical strain 77 (Table S5), read-out: MIC): 3.12 µg/mL (≈ 5.81 µM)
- MIC (Staphylococcus epidermidis, clinical strain 78 (Table S2), read-out: MIC): 1.6 µg/mL (≈ 2.97 µM)
- MIC (Staphylococcus epidermidis, clinical strain 78 (Table S5), read-out: MIC): 1.6 µg/mL (≈ 2.97 µM)
- MIC (Staphylococcus epidermidis, clinical strain 79 (Table S2), read-out: MIC): 0.4 µg/mL (≈ 0.743 µM)
- MIC (Staphylococcus epidermidis, clinical strain 79 (Table S5), read-out: MIC): 0.4 µg/mL (≈ 0.743 µM)
- MIC (Staphylococcus epidermidis, clinical strain 80 (Table S2), read-out: MIC): 3.12 µg/mL (≈ 5.81 µM)
- MIC (Staphylococcus epidermidis, clinical strain 80 (Table S5), read-out: MIC): 3.12 µg/mL (≈ 5.81 µM)
- MIC (Staphylococcus epidermidis, clinical strain 81 (Table S2), read-out: MIC): 0.2 µg/mL (≈ 0.372 µM)
- MIC (Staphylococcus epidermidis, clinical strain 81 (Table S5), read-out: MIC): 0.2 µg/mL (≈ 0.372 µM)
- MIC (Staphylococcus epidermidis, mean of MIC values against clinical MDR-SE isolates, read-out: mean MIC): 1.76 µg/mL (≈ 3.27 µM)
- MIC50 (Staphylococcus epidermidis, 81 clinical strains, concentration inhibiting growth of 50% clinical isolates): 1.6 µg/mL (≈ 2.97 µM)
- MIC90 (Staphylococcus epidermidis, 81 clinical strains, concentration inhibiting growth of 90% of clinical isolates): 3.12 µg/mL (≈ 5.81 µM)
- category according to EUCAST clinical breakpoints for linezolid (all reference and clinical MDR S. epidermidis strains): within the susceptible category
